Converted amounts (≈) assume the structure as drawn.
Test system: Staphylococcus aureus
Test: Antimicrobial activity against Staphylococcus aureus UCN18 measured after 18 hrs
Assay type: functional
Conditions: UCN18, 18 h

| MIC | Compound |
| --- | --- |
| 16 µg/mL (≈ 18 µM) | CC[C@H]1OC(=O)[C@@](C)(F)C(=O)[C@H](C)[C@@H](O[C@@H]2O[C@H](C)C[C@H](N(C)C)[C@H]2O)[C@](C)(OC)C[C@@H](C)C(=O)[C@H](C)[C@H]2N(CCCCn3cc(COc4ccc(OC)cc4)nn3)C(=O)O[C@]12C |
| 256 µg/mL (≈ 352 µM) | CC[C@H]1OC(=O)[C@@](C)(F)C(=O)[C@H](C)[C@@H](O[C@@H]2O[C@H](C)C[C@H](N(C)C)[C@H]2O)[C@](C)(OC)C[C@@H](C)C(=O)[C@H](C)[C@H]2N(CCCCN=[N+]=[N-])C(=O)O[C@]12C |
| 32 µg/mL (≈ 35.6 µM) | CC[C@H]1OC(=O)[C@@](C)(F)C(=O)[C@H](C)[C@@H](O[C@@H]2O[C@H](C)C[C@H](N(C)C)[C@H]2O)[C@](C)(OC)C[C@@H](C)C(=O)[C@H](C)[C@H]2N(CCCCn3cc(-c4cccc(C(F)(F)F)c4)nn3)C(=O)O[C@]12C |
| 16 µg/mL (≈ 19.3 µM) | CC[C@H]1OC(=O)[C@@](C)(F)C(=O)[C@H](C)[C@@H](O[C@@H]2O[C@H](C)C[C@H](N(C)C)[C@H]2O)[C@](C)(OC)C[C@@H](C)C(=O)[C@H](C)[C@H]2N(CCCCn3cc(-c4cccnc4)nn3)C(=O)O[C@]12C |
| 8 µg/mL (≈ 9.43 µM) | CC[C@H]1OC(=O)[C@@](C)(F)C(=O)[C@H](C)[C@@H](O[C@@H]2O[C@H](C)C[C@H](N(C)C)[C@H]2O)[C@](C)(OC)C[C@@H](C)C(=O)[C@H](C)[C@H]2N(CCCCn3cc(-c4ccccc4F)nn3)C(=O)O[C@]12C |
| 128 µg/mL (≈ 150 µM) | CC[C@H]1OC(=O)[C@@](C)(F)C(=O)[C@H](C)[C@@H](O[C@@H]2O[C@H](C)C[C@H](N(C)C)[C@H]2O)[C@](C)(OC)C[C@@H](C)C(=O)[C@H](C)[C@H]2N(CCCCn3cc(CN4CCNCC4)nn3)C(=O)O[C@]12C |
| 128 µg/mL (≈ 152 µM) | CC[C@H]1OC(=O)[C@@](C)(F)C(=O)[C@H](C)[C@@H](O[C@@H]2O[C@H](C)C[C@H](N(C)C)[C@H]2O)[C@](C)(OC)C[C@@H](C)C(=O)[C@H](C)[C@H]2N(CCCCn3cc(C(O)(CC)CC)nn3)C(=O)O[C@]12C |

Second part, the compound before the results:

| Compound | MIC |
| --- | --- |
| CC[C@H]1OC(=O)[C@@](C)(F)C(=O)[C@H](C)[C@@H](O[C@@H]2O[C@H](C)C[C@H](N(C)C)[C@H]2O)[C@](C)(OC)C[C@@H](C)C(=O)[C@H](C)[C@H]2N(CCCCn3cc(COc4ccccc4)nn3)C(=O)O[C@]12C | 4 µg/mL (≈ 4.65 µM) |
| CC[C@H]1OC(=O)[C@@](C)(F)C(=O)[C@H](C)[C@@H](O[C@@H]2O[C@H](C)C[C@H](N(C)C)[C@H]2O)[C@](C)(OC)C[C@@H](C)C(=O)[C@H](C)[C@H]2N(CCCCn3cc(-c4ccc(N(C)C)cc4)nn3)C(=O)O[C@]12C | 32 µg/mL (≈ 36.7 µM) |
| CC[C@H]1OC(=O)[C@@](C)(F)C(=O)[C@H](C)[C@@H](O[C@@H]2O[C@H](C)C[C@H](N(C)C)[C@H]2O)[C@](C)(OC)C[C@@H](C)C(=O)[C@H](C)[C@H]2N(CCCCn3cc(-c4cccc(O)c4)nn3)C(=O)O[C@]12C | 8 µg/mL (≈ 9.46 µM) |
| CC[C@H]1OC(=O)[C@@](C)(F)C(=O)[C@H](C)[C@@H](O[C@@H]2O[C@H](C)C[C@H](N(C)C)[C@H]2O)[C@](C)(OC)C[C@@H](C)C(=O)[C@H](C)[C@H]2N(CCCCn3cc(-c4ccc(OC)cc4)nn3)C(=O)O[C@]12C | 32 µg/mL (≈ 37.2 µM) |
| CC[C@H]1OC(=O)[C@@](C)(F)C(=O)[C@H](C)[C@@H](O[C@@H]2O[C@H](C)C[C@H](N(C)C)[C@H]2O)[C@](C)(OC)C[C@@H](C)C(=O)[C@H](C)[C@H]2N(CCCCn3cc(-c4cccc(N)c4)nn3)C(=O)O[C@]12C [SOLITHROMYCIN] | 2 µg/mL (≈ 2.37 µM) |

— ChEMBL document CHEMBL4196233, “Ribosome-Templated Azide-Alkyne Cycloadditions Using Resistant Bacteria as Reaction Vessels: in Cellulo Click Chemistry” (2018)
